Patent publication EP4104902B1, “COMPOUNDS AND M[…] SAME” (priority 2020, dated 2021)

Tested on: recombinant rabies virus 1088 strain expressing Gaussia Luciferase (GLuc) (1088/GLuc)
Format: cell-based
Conditions: read-out: Anti-rabies activity

Row | Compound | IC50 [µM]
1 | NC(=O)CN1CC2CC3CNC2(C(=O)NCc2ccccc2)C1C3CCc1ccccc1 (centres unmarked) [IB-130] | 10 to 30
2 | CC(C)CNC(=O)C12NCC3CC1CN(Cc1ccc(O)cc1)C2C3CCCNC(=N)N (centres unmarked) [IB-203] | 10 to 30
3 | N=C(N)NCCCC1C2CNC3(C(=O)NCc4ccc(F)cc4)C(C2)CN(Cc2ccc(O)cc2)C13 (centres unmarked) [IB-207] | 10 to 30
4 | O=C(O)CCNC(=O)C12NCC3CC1CN(Cc1ccc(F)cc1)C2C3Cc1cccc2ccccc12 (centres unmarked) [IB-384] | 10 to 30
5 | CC(C)CCN1CC2CC3CNC2(C(=O)NCc2ccc(F)cc2)C1C3CCC(=O)O (centres unmarked) [IB-386] | 10 to 30
6 | O=C(O)CCC1C2CNC3(C(=O)NCc4cccc5ccccc45)C(C2)CN(CC2CCCCC2)C13 (centres unmarked) [IB-389] | 10 to 30
7 | O=C(O)CCC1C2CNC3(C(=O)NCc4cccc5ccccc45)C(C2)CN(Cc2ccc(F)cc2)C13 (centres unmarked) [IB-390] | 10 to 30
8 | CC(C)CC1C2CNC3(C(=O)NCc4cccc5ccccc45)C(C2)CN(CCC(=O)O)C13 (centres unmarked) [IB-392] | 10 to 30
9 | O=C(O)CCN1CC2CC3CNC2(C(=O)NCc2ccc(F)cc2)C1C3Cc1ccccc1 (centres unmarked) [IB-394] | 10 to 30
10 | CC(C)CCC1C2CNC3(C(=O)NCc4cccc5ccccc45)C(C2)CN(CCC(=O)O)C13 (centres unmarked) [IB-398] | 10 to 30
11 | CC(C)CCC1C2CNC3(C(=O)NCc4ccc(F)cc4)C(C2)CN(CCC(=O)O)C13 (centres unmarked) [IB-399] | 10 to 30
12 | CC(C)CCC1C2CNC3(C(=O)NCc4ccc(O)cc4)C(C2)CN(CCC(=O)O)C13 (centres unmarked) [IB-402] | 10 to 30
13 | O=C(O)CCNC(=O)C12NCC3CC1CN(Cc1ccc(O)cc1)C2C3Cc1cccc2ccccc12 (centres unmarked) [IB-410] | 10 to 30
14 | O=C(NCc1ccc(O)cc1)C12NCC3CC1CN(Cc1cccc4ccccc14)C2C3Cc1cccc2ccccc12 (centres unmarked) [IB-417] | 10 to 30
15 | O=C(O)CCC1C2CNC3(C(=O)NCc4cccc5ccccc45)C(C2)CN(CCO)C13 (centres unmarked) [IB-425] | 10 to 30
16 | CC(C)CCN1CC2CC3CNC2(C(=O)NCc2cccc4ccccc24)C1C3CO (centres unmarked) [IB-426] | < 5
17 | CCCCCCNC(=O)C12NCC3CC1CN(CCO)C2C3Cc1ccccc1 (centres unmarked) [IB-476] | < 5
18 | CCCCCCNC(=O)C12NCC3CC1CN(CCO)C2C3CC(C)C (centres unmarked) [IB-477] | < 5
19 | CCCCCCNC(=O)C12NCC3CC1CN(CCO)C2C3Cc1ccc(O)cc1 (centres unmarked) [IB-478] | 10 to 30
20 | O=C(NCc1ccc(F)cc1)C12NCC3CC1CN(CCO)C2C3Cc1ccccc1 (centres unmarked) [IB-479] | 10 to 30
21 | CC(C)CCN1CC2CC3CNC2(C(=O)NCc2ccc(F)cc2)C1C3Cc1ccc(O)cc1 (centres unmarked) [IB-481] | < 5

Row | Compound | IC50 [µM]
22 | O=C(NCCc1ccccc1)C12NCC3CC1CN(CC1CCCCC1)C2C3Cc1ccccc1 (centres unmarked) [IB-484] | < 5
23 | CCCCCCNC(=O)C12NCC3CC1CN(CCO)C2C3CCC(C)C (centres unmarked) [IB-490] | < 5
24 | O=C(NCc1ccc(F)cc1)C12NCC3CC1CN(CCO)C2C3CCc1ccccc1 (centres unmarked) [IB-492] | < 5
25 | CC(C)CC1C2CNC3(C(=O)NCCc4ccccc4)C(C2)CN(CC(C)C)C13 (centres unmarked) [IB-495] | < 5
26 | CC(C)CN1CC2CC3CNC2(C(=O)NCc2ccc(F)cc2)C1C3Cc1ccc(O)cc1 (centres unmarked) [IB-498] | < 5
27 | CC(C)CC1C2CNC3(C(=O)NCc4ccc(F)cc4)C(C2)CN(Cc2ccc(O)cc2)C13 (centres unmarked) [IB-499] | < 5
28 | CC(C)CCC1C2CNC3(C(=O)NC(C)C)C(C2)CN(Cc2ccc(O)cc2)C13 (centres unmarked) [IB-501] | < 5
29 | CC(C)NC(=O)C12NCC3CC1CN(Cc1ccc(O)cc1)C2C3Cc1cccc2ccccc12 (centres unmarked) [IB-502] | < 5
30 | CC(C)CCN1CC2CC3CNC2(C(=O)NCc2ccccc2)C1C3CCC(=O)O (centres unmarked) [IB-505] | 10 to 30
31 | CC(C)CNC(=O)C12NCC3CC1CN(CCc1ccccc1)C2C3CCC(=O)O (centres unmarked) [IB-508] | 10 to 30
32 | CC(C)CNC(=O)C12NCC3CC1CN(CC1CCCCC1)C2C3CCC(=O)O (centres unmarked) [IB-510] | 10 to 30
33 | O=C(O)CCN1CC2CC3CNC2(C(=O)NCc2ccc(O)cc2)C1C3CCc1ccccc1 (centres unmarked) [IB-515] | 10 to 30
34 | O=C(O)CCN1CC2CC3CNC2(C(=O)NCc2ccc(O)cc2)C1C3Cc1cccc2ccccc12 (centres unmarked) [IB-516] | 10 to 30
35 | CC(C)CC1C2CNC3(C(=O)NCCC(N)=O)C(C2)CN(Cc2cccc4ccccc24)C13 (centres unmarked) [IB-520] | < 5
36 | NC(=O)CCNC(=O)C12NCC3CC1CN(Cc1cccc4ccccc14)C2C3Cc1ccc(O)cc1 (centres unmarked) [IB-521] | 10 to 30
37 | NC(=O)CCNC(=O)C12NCC3CC1CN(CCc1ccccc1)C2C3Cc1ccccc1 (centres unmarked) [IB-707] | < 5
38 | CC(C)CC1C2CNC3(C(=O)NCCC(N)=O)C(C2)CN(CCc2ccccc2)C13 (centres unmarked) [IB-708] | < 5
39 | NC(=O)CCNC(=O)C12NCC3CC1CN(CC1CCCCC1)C2C3CCc1ccccc1 (centres unmarked) [IB-710] | < 5
40 | NC(=O)CCNC(=O)C12NCC3CC1CN(Cc1ccc(F)cc1)C2C3Cc1ccccc1 (centres unmarked) [IB-712] | < 5
41 | CC(C)CCNC(=O)C12NCC3CC1CN(CCO)C2C3Cc1ccccc1 (centres unmarked) [IB-714] | < 5
42 | CC(C)CC1C2CNC3(C(=O)NCCc4ccccc4)C(C2)CN(Cc2ccc(F)cc2)C13 (centres unmarked) [IB-725] | < 5

Row | Compound | IC50 [µM]
43 | CC(C)CCNC(=O)C12NCC3CC1CN(CCO)C2C3Cc1cccc2ccccc12 (centres unmarked) [IB-727] | < 5
44 | NC(=O)CCNC(=O)C12NCC3CC1CN(Cc1ccccc1)C2C3Cc1ccccc1 (centres unmarked) [IB-734] | 10 to 30
45 | CC(C)CN1CC2CC3CNC2(C(=O)NCCC(N)=O)C1C3Cc1cccc2ccccc12 (centres unmarked) [IB-737] | 10 to 30
46 | CC(C)CCNC(=O)C12NCC3CC1CN(Cc1ccc(O)cc1)C2C3CC(C)C (centres unmarked) [IB-739] | 10 to 30
47 | NC(=O)CCNC(=O)C12NCC3CC1CN(Cc1ccc(O)cc1)C2C3Cc1cccc2ccccc12 (centres unmarked) [IB-743] | < 5
48 | CC(C)CCN1CC2CC3CNC2(C(=O)NCc2ccccc2)C1C3Cc1ccc(O)cc1 (centres unmarked) [IB-749] | 10 to 30
49 | O=C(NCc1cccc2ccccc12)C12NCC3CC1CN(Cc1cccc4ccccc14)C2C3CCc1ccccc1 (centres unmarked) [IB-804] | < 5
50 | NC(=O)CCNC(=O)C12NCC3CC1CN(Cc1ccccc1)C2C3Cc1cccc2ccccc12 (centres unmarked) [IB-813] | < 5
51 | O=C(NCc1ccc(F)cc1)C12NCC3CC1CN(CCO)C2C3Cc1cccc2ccccc12 (centres unmarked) [IB-831] | < 5
52 | CC(C)CC1C2CNC3(C(=O)NCc4ccccc4)C(C2)CN(Cc2ccc(Cl)cc2)C13 (centres unmarked) [IB-864] | 5 to 10
53 | CC(C)CC1C2CNC3(C(=O)NCc4ccccc4)C(C2)CN(Cc2cccc(Cl)c2)C13 (centres unmarked) [IB-865] | 5 to 10
54 | COc1ccc(CN2CC3CC4CNC3(C(=O)NCc3ccccc3)C2C4CC(C)C)cc1 (centres unmarked) [IB-866] | 5 to 10
55 | Cc1ccc(CN2CC3CC4CNC3(C(=O)NCc3ccccc3)C2C4CC(C)C)cc1 (centres unmarked) [IB-867] | 5 to 10
56 | CC(C)CCNC(=O)C12NCC3CC1CN(CC(C)C)C2C3Cc1ccccc1 (centres unmarked) [IB-870] | 10 to 30
57 | CC(C)CC1C2CNC3(C(=O)NCc4ccc(Cl)cc4)C(C2)CN(CC(C)C)C13 (centres unmarked) [IB-871] | 10 to 30
58 | CC(C)CC1C2CNC3(C(=O)NCc4ccccc4)C(C2)CN(Cc2ccc(N(C)C)cc2)C13 (centres unmarked) [IB-873] | 5 to 10
59 | CC(C)CC1C2CNC3(C(=O)NCc4ccccc4)C(C2)CN(Cc2ccc(C(C)(C)C)cc2)C13 (centres unmarked) [IB-874] | 5 to 10
60 | CC(C)CCC1C2CNC3(C(=O)NCc4ccccc4)C(C2)CN(CC(C)C)C13 (centres unmarked) [IB-875] | 10 to 30
61 | CC(C)CCN1CC2CC3CNC2(C(=O)NCc2ccccc2)C1C3CC(C)C (centres unmarked) [IB-876] | 10 to 30
62 | CCOc1ccc(CN2CC3CC4CNC3(C(=O)NCc3ccccc3)C2C4CC(C)C)cc1 (centres unmarked) [IB-878] | 10 to 30
